Experimental findings from paper PMC7897990, “TriTOX: A novel Trichomonas vaginalis assay platform for high-throughput screening of compound libraries” (International Journal for Parasitology: Drugs and Drug …, 2021) are described below.

The subject of data set [1] is nontumorigenic neonatal foreskin fibroblast (NFF) cell line.
Data set [2] deals with Trichomonas vaginalis G3 trophozoites. To be noted: for T.vaginalis_Absorbance_Rep1: replicate 1, raw absorbance; for T.vaginalis_Absorbance_Rep2: replicate 2, raw absorbance.
Where [3] appears, read: NFF fibroblasts, single concentration 5 µg/mL.
Where [4] appears, read: HTS replicate 1, parasite screen 1 µg/mL.
[5] abbreviates: HTS replicate 2, parasite screen 1 µg/mL.
[6] abbreviates: replicate 1, parasite screen at 1 µg/mL.
Where [7] appears, read: replicate 2, parasite screen at 1 µg/mL.
[8] abbreviates: HTS, parasite screen at 1 µg/mL, replicate 1.
The mark [9] stands for this setting: HTS, parasite screen at 1 µg/mL.
[10] abbreviates: HTS, parasite screen at 1 µg/mL, replicate 2.
[11] abbreviates: NFF_NS1 screen 5 µg/mL, single concentration.
[12] abbreviates: HTS single concentration, parasite screen 1 µg/mL, replicate 1.
The mark [13] stands for this setting: HTS single concentration, parasite screen 1 µg/mL, replicate 2.

Read-outs that look alike come from different tables or passages of the source. Starred links: 1 amine or outer side, 2 acyl side, 3 side chain; linkers in the order of their positions; H or OH if unused. Positions of bridges follow the written chain, without caps; N, C: chain ends. Non-standard residues stand in square brackets, D forms with d. Residues, ends and D or L forms follow the SMILES beside them. Chains are numbered I, II in the order given. Actinocin(9to1) = Cc1c2oc3c(C)ccc(C(=O)[*:1])c3nc-2c(C(=O)[*:2])c(N)c1=O; NMeV = CN[CH](C(=O)O)C(C)C; GABA = NCCCC(=O)O; Sar = CNCC(=O)O

Consider `COc1cc(C)c(C(=O)O)c(OC)c1` [Orsellinic acid dimethylether], for which the NFF_Activity entry in data set [1] (setting [3]) is “I (otherwise these were reported as inactive (I))”. Moreover, the T.vaginalis_%inb_Rep1 in data set [2] (setting [4]) is given as 12.73%. Also, the T.vaginalis_%inb_Rep2 in data set [2] (setting [5]) was found to be 13.02%.
In the case of `COc1c(O)c(C)c(C)c(O)c1OC` [BIA-H1651], the NFF_Activity entry in data set [1] (NFF cells, screen at 5 µg/mL) is recorded as “A (active (A) compounds having >25% inhibitory activity)”. Moreover, the T.vaginalis_%inb_Rep1 in data set [2] (setting [6]) amounted to 13.69%. For the same compound, the T.vaginalis_%inb_Rep2 in data set [2] (setting [7]) turned out to be 12.19%.
Take `C=C1c2cccc(O)c2C(O)=C2C(=O)C3(O)C(O)=C(C(N)=O)C(=O)C(N(C)C)C3C(O)C12` (stereo not shown) [BIA-M1467]: the NFF_Activity result in data set [1] (NFF cells, screen at 5 µg/mL) was “I (otherwise these were reported as inactive (I))”. In data set [2] (setting [6]), this compound yielded a T.vaginalis_%inb_Rep1 of 12.78%. This compound also returned a T.vaginalis_%inb_Rep2 in data set [2] (setting [7]) of 4.43%.
`COc1ccc2c(c1OC)C(=O)O[C@@H]2[C@H]1c2c(cc3c(c2OC)OCO3)CCN1C` [Narcotine]: the NFF_Activity entry in data set [1] (setting [3]) is “I (otherwise these were reported as inactive (I))”. This compound also gave a T.vaginalis_%inb_Rep1 in data set [2] (setting [4]) of 11.80%. Moreover, the T.vaginalis_%inb_Rep2 in data set [2] (setting [5]) turned out to be 11.76%.
For `Cc1cc(=O)c(O)cc2c1C[C@@H]1CC(C)(C)/C=C/C[C@@]3(C)Oc4cc(O)c(=O)cc(C)c4C[C@@H]3C[C@@H](O)[C@]1(C)O2` [Eupenifeldin], the NFF_Activity entry in data set [1] (NFF_NS1 screen at 5 µg/mL) is “A (active (A) compounds having >25% inhibitory activity)”. Besides, the T.vaginalis_%inb_Rep1 in data set [2] (setting [8]) is recorded as 14.05%. In data set [2] (setting [9]), the T.vaginalis_Absorbance_Rep1 is 0.97 and the T.vaginalis_Absorbance_Rep2 worked out at 0.81. In data set [2] (setting [10]), this compound displayed a T.vaginalis_%inb_Rep2 of 13.74%.
With `CO[C@H]1/C=C\C=C(/C)C(=O)NC2=CC(=O)C(NCCN(C)C)=C(C[C@@H](C)C[C@H](OC)[C@H](O)[C@@H](C)/C=C(\C)[C@@H]1OC(N)=O)C2=O` [BIA-A1924], in data set [1] (setting [11]), the NFF_Activity result is recorded as “A (active (A) compounds having >25% inhibitory activity)”. In data set [2] (setting [12]), this compound registered a T.vaginalis_%inb_Rep1 of 5.66%. This compound also registered a T.vaginalis_%inb_Rep2 in data set [2] (setting [13]) of 62.10%.
In the case of `C[C@@H]1CC[C@H](O)/C=C/C(=O)O[C@H](C)CC[C@H](O)/C=C/C(=O)O1` [Pyrenophorol], in data set [1] (setting [3]), the NFF_Activity result is “I (otherwise these were reported as inactive (I))”. In data set [2] (setting [4]), this compound registered a T.vaginalis_%inb_Rep1 of 10.44%. Moreover, in data set [2] (setting [5]), the T.vaginalis_%inb_Rep2 came out at 11.15%.
Consider `CC[C@H](C)[C@H]1O[C@]2(C=C[C@@H]1C)C[C@@H]1C[C@@H](C/C=C(\C)[C@@H](O[C@H]3C[C@H](OC)[C@@H](O[C@H]4C[C@H](OC)[C@@H](O)[C@H](C)O4)[C@H](C)O3)[C@@H](C)/C=C/C=C3\CO[C@@H]4[C@H](O)C(C)C=C(C(=O)O1)[C@]34O)O2` (stereo partly shown) [BIA-A1579], for which the NFF_Activity result in data set [1] (setting [11]) was “I (otherwise these were reported as inactive (I))”. Besides, in data set [2] (setting [12]), the T.vaginalis_%inb_Rep1 is 15.89%. In data set [2] (setting [13]), this compound displayed a T.vaginalis_%inb_Rep2 of 15.40%.
The corresponding values for `Cc1cc(O)cc2oc(=O)c3c(O)cc(O)cc3c12` [BIA-A1926] are “I (otherwise these were reported as inactive (I))”, 6.66% and 9.26%.
The corresponding values for `COc1cc2c(c3oc(=O)c4c(c13)CCOC4=O)[C@@H]1CCO[C@@H]1O2` [BIA-A1235] are “I (otherwise these were reported as inactive (I))”, 12.33% and 13.81%.
For the compound `O=c1cccc2n1C[C@H]1C[C@@H]2CN2CCCC[C@H]12` [BIA-A1939], the NFF_Activity result in data set [1] (setting [11]) is “I (otherwise these were reported as inactive (I))”. In data set [2] (setting [12]), this compound came in with a T.vaginalis_%inb_Rep1 of 7.92%. The compound further had a T.vaginalis_%inb_Rep2 in data set [2] (setting [13]) of 14.14%.
As for `CCCCC(C)C=C(C)C=C(C)C(=O)NC1=CC(O)(C=CC=CC=CC(=O)NC2=C(O)CCC2=O)C2OC2C1=O` (stereo not shown) [BIA-M1905], the NFF_Activity result in data set [1] (NFF cells, screen at 5 µg/mL) is “I (otherwise these were reported as inactive (I))”. The T.vaginalis_%inb_Rep1 in data set [2] (setting [6]) amounted to 10.60%. The T.vaginalis_%inb_Rep2 in data set [2] (setting [7]) is 12.76%.
On to `COc1ccc2c(c1OC)C(=O)O[C@@H]2[C@H]1c2cc3c(cc2CCN1C)OCO3` [BIA-H1954], for which the NFF_Activity entry in data set [1] (NFF cells, screen at 5 µg/mL) is “I (otherwise these were reported as inactive (I))”. In addition, the T.vaginalis_%inb_Rep1 in data set [2] (setting [6]) amounted to 11.27%. Also, the T.vaginalis_%inb_Rep2 in data set [2] (setting [7]) was found to be 6.40%.
For `CC[C@H](C)[C@H]1O[C@]2(C=C[C@@H]1C)C[C@@H]1C[C@@H](C/C=C(\C)[C@@H](O[C@H]3C[C@H](OC)[C@@H](O[C@H]4C[C@H](OC)[C@H](NC)[C@H](C)O4)[C@H](C)O3)[C@@H](C)/C=C/C=C3\CO[C@@H]4[C@H](O)C(C)=C[C@@H](C(=O)O1)[C@]34O)O2` [Emamectin B1a], the NFF_Activity result in data set [1] (NFF_NS1 screen at 5 µg/mL) is “A (active (A) compounds having >25% inhibitory activity)”. In data set [2] (setting [8]), the T.vaginalis_%inb_Rep1 worked out at 15.19%. In addition, in data set [2] (setting [9]), the T.vaginalis_Absorbance_Rep1 is on record as 0.991 and the T.vaginalis_Absorbance_Rep2 was found to be 0.699. The compound also gave a T.vaginalis_%inb_Rep2 in data set [2] (setting [10]) of 5.71%.
For `Cc1c2oc3c(C)ccc(C(=O)NC4C(=O)NC(C(C)C)C(=O)N5CCCC5C(=O)N(C)CC(=O)N(C)C(C(C)C)C(=O)OC4C)c3nc-2c(C(=O)NC2C(=O)NC(C(C)C)C(=O)N3CCCC3C(=O)N(C)CC(=O)N(C)C(C(C)C)C(=O)OC2C)c(N)c1=O` (stereo not shown) [BIA-A1185] (I: TVP[Sar][NMeV] / II: TVP[Sar][NMeV]; ester I:1-I:C, II:1-II:C; linker I:N-II:N via Actinocin(9to1); configuration not given here), in data set [1] (setting [11]), the NFF_Activity result was “I (otherwise these were reported as inactive (I))”. In data set [2] (setting [12]), this compound returned a T.vaginalis_%inb_Rep1 of 0.00%. In addition, the T.vaginalis_%inb_Rep2 in data set [2] (setting [13]) is reported as 40.20%.
`CC(C)[C@H]1NC(=O)[C@H](Cc2ccccc2)NC(=O)[C@@H](C(C)C)NC(=O)[C@@H](C)NC(=O)CCCNC(=O)[C@@H](Cc2c[nH]c3ccccc23)NC(=O)[C@@H](C)NC1=O` [Unguisin A] (cyclo(F[dV][dA][dW][GABA][dA][dV])): the NFF_Activity result in data set [1] (NFF fibroblast screen at 5 µg/mL, A = active, I = inactive) was “I (otherwise these were reported as inactive (I))”. The T.vaginalis_%inb_Rep1 in data set [2] (setting [8]) is 9.07%. The compound also displayed a T.vaginalis_%inb_Rep2 in data set [2] (setting [10]) of 14.50%.
As for `CN[C@@H]1C[C@H]2O[C@@](C)([C@@H]1OC)n1c3ccccc3c3c4c(c5c6ccccc6n2c5c31)C(=O)NC4=O` [BIA-O1137], the NFF_Activity entry in data set [1] (setting [11]) is recorded as “A (active (A) compounds having >25% inhibitory activity)”. This compound displayed a T.vaginalis_%inb_Rep1 in data set [2] (setting [12]) of 63.59%. This compound also registered a T.vaginalis_%inb_Rep2 in data set [2] (setting [13]) of 75.50%.
Turning to `O=C(O)CC[N+](=O)[O-]` [Nitropropionic acid, 3-], in data set [1] (setting [3]), the NFF_Activity entry was “I (otherwise these were reported as inactive (I))”. Also, the T.vaginalis_%inb_Rep1 in data set [2] (setting [4]) was determined as 18.00%. This compound had a T.vaginalis_%inb_Rep2 in data set [2] (setting [5]) of 11.87%.
Regarding `CC(=O)NCCc1ccc(O)cc1` [BIA-A1731], the NFF_Activity result in data set [1] (setting [11]) is “I (otherwise these were reported as inactive (I))”. For the same compound, the T.vaginalis_%inb_Rep1 in data set [2] (setting [12]) was 13.35%. For the same compound, the T.vaginalis_%inb_Rep2 in data set [2] (setting [13]) is 10.05%.
As for `CCC[C@@H]1C[C@@H](C(=O)N[C@@H]([C@H]2O[C@H](SC)[C@H](O)[C@@H](O)[C@H]2O)[C@@H](C)O)N(C)C1` [BIA-L1457], in data set [1] (NFF cells, screen at 5 µg/mL), the NFF_Activity result was “I (otherwise these were reported as inactive (I))”. Also, in data set [2] (setting [6]), the T.vaginalis_%inb_Rep1 came to 12.27%. In data set [2] (setting [7]), the T.vaginalis_%inb_Rep2 was 9.94%.
In the case of `CC[C@H](C)[C@H]1O[C@]2(C=C[C@@H]1C)C[C@@H]1C[C@@H](C/C=C(\C)[C@@H](O)[C@@H](C)/C=C/C=C3\CO[C@@H]4[C@H](O)C(C)=C[C@@H](C(=O)O1)[C@]34O)O2` [BIA-A1587], the NFF_Activity result in data set [1] (setting [11]) was “I (otherwise these were reported as inactive (I))”. The T.vaginalis_%inb_Rep1 in data set [2] (setting [12]) worked out at 13.62%. This compound also gave a T.vaginalis_%inb_Rep2 in data set [2] (setting [13]) of 16.27%.
